{"source": "ChEMBL document CHEMBL5390242", "about": "“Design, Synthesis, and Antitumor Efficacy of Substituted 2-Amino[1,2,4]triazolopyrimidines and Related Heterocycles as Dual Inhibitors for Microtubule Polymerization and Janus Kinase 2” (J Med Chem, 2023)", "key": {"A549 [1]": {"tested_on": "A549", "assay": "Induction of apoptosis in human A549 cells assessed as viable cells at 20 nM incubated for 24 hrs by Annexin V-FITC/PI staining based flow cytometry (reference value: 93 %)", "type": "functional", "settings": "read-out: Activity"}, "[2]": {"assay": "Cmax in CD-1 mouse at 10 mg/kg,ip measured upto 24 hrs by HPLC-MS/MS analysis", "type": "ADME, organism-based", "set-up": "time < 24 hrs, dose 10 mg/kg, route ip", "settings": "in vivo"}, "HT-29": {"tested_on": "HT-29", "assay": "Antiproliferative activity against human HT-29 cells assessed as cell growth inhibition incubated for 48 hrs by MTT assay", "type": "functional, cell-based", "settings": "HT-29, 48 h"}, "[3]": {"assay": "Toxicity in Balb/c mouse xenografted with human A549 cells assessed as effect on heart morphology at 50 mg/kg,ip administration measured after 31 days by Hematoxylin-eosin staining based microscopy", "type": "organism-based", "settings": "in vivo, 744 h, time 31 day"}, "[4]": {"assay": "Acute toxicity in C57BL/6 mouse assessed as maximum tolerated dose administered intravenously for 5 consecutive days", "settings": "in vivo, route iv"}, "[5]": {"assay": "Tmax in CD-1 mouse assessed as Tmax of metabolite at 10 mg/kg,ip measured upto 24 hrs by HPLC-MS/MS analysis", "type": "ADME, organism-based", "settings": "in vivo"}, "A549 [6]": {"tested_on": "A549", "assay": "Induction of apoptosis in human A549 cells assessed as late apoptotic cells at 20 nM incubated for 24 hrs by Annexin V-FITC/PI staining based flow cytometry (reference value: 1.72 %)", "type": "functional"}, "[7]": {"molecular_target": "Tyrosine-protein kinase JAK1 (Homo sapiens, UniProt P23458)", "sequence (P23458 whole entry)": "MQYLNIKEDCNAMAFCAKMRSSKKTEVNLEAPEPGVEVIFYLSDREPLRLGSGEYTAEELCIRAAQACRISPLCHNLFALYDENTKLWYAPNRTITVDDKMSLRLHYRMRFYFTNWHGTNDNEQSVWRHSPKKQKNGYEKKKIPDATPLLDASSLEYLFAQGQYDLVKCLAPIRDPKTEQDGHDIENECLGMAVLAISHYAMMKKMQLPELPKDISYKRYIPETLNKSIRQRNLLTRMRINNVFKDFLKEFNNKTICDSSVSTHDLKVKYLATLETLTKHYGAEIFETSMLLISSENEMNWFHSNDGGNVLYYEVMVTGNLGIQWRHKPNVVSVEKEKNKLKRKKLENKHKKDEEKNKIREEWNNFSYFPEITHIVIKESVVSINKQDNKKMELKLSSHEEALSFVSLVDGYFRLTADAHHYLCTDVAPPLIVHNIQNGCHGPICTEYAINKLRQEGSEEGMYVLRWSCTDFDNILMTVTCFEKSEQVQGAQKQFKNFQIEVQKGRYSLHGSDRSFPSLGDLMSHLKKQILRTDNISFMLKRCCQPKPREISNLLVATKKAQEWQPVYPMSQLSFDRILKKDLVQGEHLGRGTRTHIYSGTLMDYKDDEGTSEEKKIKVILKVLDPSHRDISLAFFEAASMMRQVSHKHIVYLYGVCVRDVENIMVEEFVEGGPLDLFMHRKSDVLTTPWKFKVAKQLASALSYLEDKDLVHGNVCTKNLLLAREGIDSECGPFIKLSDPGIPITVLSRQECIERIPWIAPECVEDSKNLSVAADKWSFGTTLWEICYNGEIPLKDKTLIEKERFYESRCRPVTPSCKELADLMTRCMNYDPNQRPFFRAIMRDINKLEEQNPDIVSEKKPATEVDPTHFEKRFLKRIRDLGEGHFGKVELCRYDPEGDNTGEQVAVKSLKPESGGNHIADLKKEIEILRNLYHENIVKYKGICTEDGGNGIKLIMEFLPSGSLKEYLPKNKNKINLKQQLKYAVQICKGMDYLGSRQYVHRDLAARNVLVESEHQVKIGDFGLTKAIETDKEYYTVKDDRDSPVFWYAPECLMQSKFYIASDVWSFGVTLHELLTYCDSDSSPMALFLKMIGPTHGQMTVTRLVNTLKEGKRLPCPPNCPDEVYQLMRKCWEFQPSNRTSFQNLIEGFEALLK", "assay": "Inhibition of JAK1 (unknown origin) using Poly-(Glu,Tyr 4:1) peptide as substrate in presence of ATP by ADP-Glo reagent based assay"}, "[8]": {"assay": "Tmax in CD-1 mouse at 1 mg/kg,iv measured upto 24 hrs by HPLC-MS/MS analysis", "type": "ADME, organism-based", "settings": "in vivo"}, "[9]": {"assay": "AUC (0 to t) in CD-1 mouse at 1 mg/kg,iv measured upto 24 hrs by HPLC-MS/MS analysis", "type": "ADME, organism-based", "set-up": "dose 1 mg/kg, time < 24 hrs, route iv", "settings": "in vivo"}, "[10]": {"assay": "MRT (0 to t) in CD-1 mouse at 10 mg/kg,ip measured upto 24 hrs by HPLC-MS/MS analysis", "type": "ADME, organism-based", "settings": "in vivo"}, "Tubulin (Homo sapiens)": {"molecular_target": "Tubulin (Homo sapiens) (UniProt P68371+Q9H4B7+P0DPH7+P68366+Q13509+Q71U36+P04350+Q3ZCM7+P07437+P68363+Q9BQE3+Q6PEY2+Q13885+Q9BVA1+Q9BUF5)", "assay": "Disruption of microtubule assembly in human A549 cells at 1 uM incubated for 6 hrs by Hoechst33342 staining based immunofluorescence analysis", "type": "cell-based"}, "[11]": {"assay": "MRT (0 to infinity) in CD-1 mouse at 10 mg/kg,ip measured upto 24 hrs by HPLC-MS/MS analysis", "type": "ADME, organism-based", "settings": "in vivo"}, "A549 [12]": {"tested_on": "A549", "assay": "Induction of mitochondrial membrane potential loss in human A549 cells by measuring red fluorescence at 20 nM incubated for 16 hrs by JC-1 staining based flow cytometry analysis (reference value: 99.3 %)", "type": "functional"}, "CWR22R": {"tested_on": "CWR22R", "assay": "Cytotoxicity against human 22Rv1 cells assessed as cell growth inhibition incubated for 48 hrs by MTT assay", "type": "functional, cell-based", "settings": "22Rv1, 48 h"}, "A549 [13]": {"tested_on": "A549", "assay": "Induction of apoptosis in human A549 cells assessed as necrotic cells at 10 nM incubated for 24 hrs by Annexin V-FITC/PI staining based flow cytometry (reference value: 0.67 %)", "type": "functional"}, "A549 [14]": {"tested_on": "A549", "assay": "Induction of apoptosis in human A549 cells assessed as early apoptotic cells at 5 nM incubated for 24 hrs by Annexin V-FITC/PI staining based flow cytometry (reference value: 4.61 %)", "type": "functional"}, "A549 [15]": {"tested_on": "A549", "assay": "Induction of apoptosis in human A549 cells assessed as reduction of mitochondrial membrane potential incubated for 16 hrs by JC-1 staining based flow cytometry analysis", "type": "functional, cell-based"}, "HepG2": {"tested_on": "HepG2", "assay": "Cytotoxicity against human HepG2 cells assessed as cell growth inhibition incubated for 48 hrs by MTT assay", "type": "functional, cell-based", "settings": "HepG2, 48 h"}, "A549 [16]": {"tested_on": "A549", "assay": "Induction of apoptosis in human A549 cells assessed as viable cells at 5 nM incubated for 24 hrs by Annexin V-FITC/PI staining based flow cytometry (reference value: 93 %)", "type": "functional", "settings": "read-out: Activity"}, "[17]": {"assay": "AUC (0 to t) in CD-1 mouse at 10 mg/kg,ip measured upto 24 hrs by HPLC-MS/MS analysis", "type": "ADME, organism-based", "set-up": "dose 10 mg/kg, time < 24 hrs, route ip", "settings": "in vivo"}, "A549 [18]": {"tested_on": "A549", "assay": "Induction of apoptosis in human A549 cells assessed as early apoptotic cells at 10 nM incubated for 24 hrs by Annexin V-FITC/PI staining based flow cytometry (reference value: 4.61 %)", "type": "functional"}, "[19]": {"molecular_target": "T1, JAK2-STAT3 (Homo sapiens) (UniProt O60674+P40763)", "assay": "Inhibition of JAK2/STAT3 signalling pathway in human A549 cells assessed as downregulation of JAK2 phosphorylation incubated for 24 hrs by Western blotting analysis", "type": "cell-based"}, "[20]": {"assay": "MRT (0 to t) in CD-1 mouse at 1 mg/kg,iv measured upto 24 hrs by HPLC-MS/MS analysis", "type": "ADME, organism-based", "settings": "in vivo"}, "Tubulin (Sus scrofa)": {"molecular_target": "Tubulin (Sus scrofa) (UniProt P02554+P02550)", "sequence (P02550 whole entry, looked up)": "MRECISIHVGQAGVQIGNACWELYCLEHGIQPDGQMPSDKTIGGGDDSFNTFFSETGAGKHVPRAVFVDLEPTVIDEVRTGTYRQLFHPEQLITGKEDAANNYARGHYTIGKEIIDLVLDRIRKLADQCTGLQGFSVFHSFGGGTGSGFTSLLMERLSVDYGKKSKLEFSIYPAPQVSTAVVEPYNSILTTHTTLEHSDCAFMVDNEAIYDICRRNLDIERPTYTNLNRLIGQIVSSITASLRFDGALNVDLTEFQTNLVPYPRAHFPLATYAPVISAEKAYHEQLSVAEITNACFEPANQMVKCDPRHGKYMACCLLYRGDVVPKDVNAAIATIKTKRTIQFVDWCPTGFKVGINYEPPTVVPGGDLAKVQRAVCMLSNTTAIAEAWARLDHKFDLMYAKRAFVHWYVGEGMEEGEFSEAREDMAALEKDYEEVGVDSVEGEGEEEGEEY", "sequence (P02554 whole entry, looked up)": "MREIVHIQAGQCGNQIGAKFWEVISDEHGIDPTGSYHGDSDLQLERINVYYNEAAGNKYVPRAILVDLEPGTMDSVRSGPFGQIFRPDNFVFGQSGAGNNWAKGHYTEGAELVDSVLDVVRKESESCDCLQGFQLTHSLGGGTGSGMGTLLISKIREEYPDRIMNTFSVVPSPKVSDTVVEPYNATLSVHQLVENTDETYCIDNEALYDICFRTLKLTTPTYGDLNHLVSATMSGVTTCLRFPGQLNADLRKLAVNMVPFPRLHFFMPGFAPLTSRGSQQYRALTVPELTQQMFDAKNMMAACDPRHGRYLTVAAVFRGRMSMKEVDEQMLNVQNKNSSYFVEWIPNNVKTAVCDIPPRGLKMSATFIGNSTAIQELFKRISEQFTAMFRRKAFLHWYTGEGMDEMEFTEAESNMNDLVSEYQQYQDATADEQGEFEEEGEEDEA", "assay": "Inhibition of porcine brain tubulin polymerization at 0.625 to 2.5 uM measured for 30 mins in presence of GTP by microplate reader assay", "type": "tissue-based", "settings": "dose 0.625-2.5 µM"}, "[21]": {"molecular_target": "T1, JAK2-STAT3 (Homo sapiens)", "assay": "Inhibition of JAK2/STAT3 signalling pathway in human A549 cells assessed as effect on JAK2 protein level at 5 to 20 uM incubated for 24 hrs by Western blotting analysis", "type": "cell-based", "settings": "dose 5-20 µM"}, "[22]": {"molecular_target": "Tubulin beta (Homo sapiens) (UniProt P68371+Q9H4B7+Q13509+P04350+Q3ZCM7+P07437+Q13885+Q9BVA1+Q9BUF5+A6NNZ2)", "assay": "Binding affinity to beta-tubulin colchicine binding site in human A549 cells assessed as inhibition of EBI-beta-tubulin adduct band formation at 1 to 25 uM preincubated for 2 hrs followed by EBI addition measured after 1.5 hrs by EBI competition based Western blotting analysis", "type": "cell-based", "settings": "dose 1-25 µM"}, "[23]": {"assay": "MRT (0 to infinity) in CD-1 mouse assessed as MRT (0 to infinity) of metabolite at 10 mg/kg,ip measured upto 24 hrs by HPLC-MS/MS analysis", "type": "ADME, organism-based", "settings": "in vivo"}, "A549 [24]": {"tested_on": "A549", "assay": "Induction of apoptosis in human A549 cells assessed as necrotic cells at 5 nM incubated for 24 hrs by Annexin V-FITC/PI staining based flow cytometry (reference value: 0.67 %)", "type": "functional"}, "[25]": {"assay": "Resistance index, ratio of IC50 for antiproliferative activity against human A549/DDP cells to IC50 for antiproliferative activity against human A549 cells", "type": "functional"}, "[26]": {"assay": "AUC (0 to t) in CD-1 mouse assessed as AUC (0 to t) of metabolite at 10 mg/kg,ip measured upto 24 hrs by HPLC-MS/MS analysis", "type": "ADME, organism-based", "set-up": "dose 10 mg/kg, time < 24 hrs, route ip", "settings": "in vivo"}, "A549 [27]": {"tested_on": "A549", "assay": "Antiproliferative activity against human A549 cells assessed as cell growth inhibition incubated for 48 hrs by MTT assay", "type": "functional, cell-based", "settings": "A549, 48 h"}, "[28]": {"molecular_target": "Tyrosine-protein kinase JAK2 (Homo sapiens, UniProt O60674)", "sequence (O60674 whole entry)": "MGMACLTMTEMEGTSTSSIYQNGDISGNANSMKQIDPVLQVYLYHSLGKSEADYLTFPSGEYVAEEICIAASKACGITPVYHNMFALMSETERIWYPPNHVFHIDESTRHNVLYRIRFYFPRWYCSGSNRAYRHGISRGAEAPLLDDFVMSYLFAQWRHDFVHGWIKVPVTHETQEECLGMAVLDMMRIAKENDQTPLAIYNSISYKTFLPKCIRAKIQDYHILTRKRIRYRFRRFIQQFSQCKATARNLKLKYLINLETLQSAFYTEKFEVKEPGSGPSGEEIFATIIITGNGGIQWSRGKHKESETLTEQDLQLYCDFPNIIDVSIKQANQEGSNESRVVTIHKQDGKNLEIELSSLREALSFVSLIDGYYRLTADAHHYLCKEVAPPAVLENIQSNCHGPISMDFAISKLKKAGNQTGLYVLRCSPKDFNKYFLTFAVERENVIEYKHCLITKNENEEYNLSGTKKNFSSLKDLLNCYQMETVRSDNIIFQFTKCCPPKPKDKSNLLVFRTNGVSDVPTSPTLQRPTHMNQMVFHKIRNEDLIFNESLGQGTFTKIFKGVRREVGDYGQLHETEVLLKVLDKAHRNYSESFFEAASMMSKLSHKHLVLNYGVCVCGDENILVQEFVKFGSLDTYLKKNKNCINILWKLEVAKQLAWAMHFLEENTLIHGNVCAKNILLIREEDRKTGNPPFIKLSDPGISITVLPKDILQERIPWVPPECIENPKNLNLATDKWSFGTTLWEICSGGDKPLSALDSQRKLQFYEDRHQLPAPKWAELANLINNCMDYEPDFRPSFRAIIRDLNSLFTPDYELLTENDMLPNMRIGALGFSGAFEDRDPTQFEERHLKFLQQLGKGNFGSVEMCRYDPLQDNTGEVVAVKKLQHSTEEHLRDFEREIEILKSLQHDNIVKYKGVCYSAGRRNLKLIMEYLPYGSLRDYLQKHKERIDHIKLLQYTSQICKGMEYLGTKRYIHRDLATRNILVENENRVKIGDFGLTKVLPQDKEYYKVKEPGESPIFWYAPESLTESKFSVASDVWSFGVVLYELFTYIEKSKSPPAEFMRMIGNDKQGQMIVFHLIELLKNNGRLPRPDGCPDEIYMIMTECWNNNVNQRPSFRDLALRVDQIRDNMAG", "assay": "Inhibition of JAK2 (unknown origin) using Poly-(Glu,Tyr 4:1) peptide as substrate in presence of ATP by ADP-Glo reagent based assay"}, "A549 [29]": {"tested_on": "A549", "assay": "Induction of cell cycle arrest in human A549 cells assessed as accumulation of cells at G2/M phase at 20 nM incubated for 24 hrs by PI/RNase staining based flow cytometry analysis", "type": "functional"}}, "note": "Calls of active or inactive are those of the source. The calls are words filed in the database; no cut-off is given here."}
{"smiles": "COc1cc(-c2nccc3nc(Nc4cccc5[nH]ccc45)nn23)cc(OC)c1OC", "values": [{"measurement": "viability at 0.02 µM", "setting": "A549 [1]", "value": 9.34, "unit": "%"}, {"measurement": "Cmax", "setting": "[2]", "value": 158, "unit": "ng/mL"}, {"measurement": "IC50", "setting": "HT-29", "value": 0.027, "unit": "µM"}, {"measurement": "Activity", "setting": "[3]", "value": "Non-Toxic"}, {"measurement": "MTD at 5 days", "setting": "[4]", "value": 100, "unit": "mg/kg"}, {"measurement": "Tmax", "setting": "[5]", "value": 1, "unit": "h"}, {"measurement": "Activity", "setting": "A549 [6]", "value": 50.8, "unit": "%"}, {"measurement": "IC50", "setting": "[7]", "value": "> 20", "unit": "µM"}, {"measurement": "Tmax", "setting": "[8]", "value": 6, "unit": "min"}, {"measurement": "AUC(0-t) at 24 h", "setting": "[9]", "value": 364, "unit": "ng·h/mL"}, {"measurement": "MRT last at 24 h", "setting": "[10]", "value": 4.6, "unit": "h"}, {"measurement": "Activity", "setting": "Tubulin (Homo sapiens)", "value": "Active"}, {"measurement": "MRT inf", "setting": "[11]", "value": 5.6, "unit": "h"}, {"measurement": "Activity", "setting": "A549 [12]", "value": 55.9, "unit": "%"}, {"measurement": "IC50", "setting": "CWR22R", "value": 0.0124, "unit": "µM"}, {"measurement": "Activity", "setting": "A549 [13]", "value": 2.6, "unit": "%"}, {"measurement": "Activity", "setting": "A549 [14]", "value": 7.51, "unit": "%"}, {"measurement": "Activity", "setting": "A549 [15]", "value": "Dose-Dependent Effect"}, {"measurement": "IC50", "setting": "HepG2", "value": 0.0518, "unit": "µM"}, {"measurement": "viability at 0.005 µM", "setting": "A549 [16]", "value": 90.5, "unit": "%"}, {"measurement": "AUC(0-t) at 24 h", "setting": "[17]", "value": 559, "unit": "ng·h/mL"}, {"measurement": "Activity", "setting": "A549 [18]", "value": 27.3, "unit": "%"}, {"measurement": "inhibition", "setting": "[19]", "value": "Dose-Dependent Effect"}, {"measurement": "MRT last at 24 h", "setting": "[20]", "value": 5.2, "unit": "h"}, {"measurement": "inhibition", "setting": "Tubulin (Sus scrofa)", "value": "Active"}, {"measurement": "inhibition", "setting": "[21]", "value": "inactive"}, {"measurement": "Activity", "setting": "[22]", "value": "Active"}, {"measurement": "MRT", "setting": "[23]", "value": 4, "unit": "h"}, {"measurement": "Activity", "setting": "A549 [24]", "value": 0.21, "unit": "%"}, {"measurement": "Ratio IC50", "setting": "[25]", "value": 0.5}, {"measurement": "AUCt", "setting": "[26]", "value": 2534.7, "unit": "ng·h/mL"}, {"measurement": "IC50", "setting": "A549 [27]", "value": 0.008, "unit": "µM"}, {"measurement": "IC50", "setting": "[28]", "value": 0.074, "unit": "µM"}, {"measurement": "Activity", "setting": "A549 [29]", "value": 91.5, "unit": "%"}]}
